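Dose response: 5 concentrations. Exposure: 48 h. Format: 96-well plates. Endpoint: linear interpolation; highest concentration if not reached. Definition used: TGI = concentration required for complete inhibition of growth.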
How the values were obtained:
Test in all cases: DTP human tumour cell line panel, 48 h
MDA-MB-231 breast = tested on: MDA-MB-231 breast
NCI-H226 lung = tested on: NCI-H226 lung
SR leukemia = tested on: SR leukemia
HOP-62 NSCLC = tested on: HOP-62 NSCLC
A549 NSCLC = tested on: A549 NSCLC
NCI-H522 lung = tested on: NCI-H522 lung
ACHN renal = tested on: ACHN renal
TK-10 renal = tested on: TK-10 renal
SK-OV-3 ovarian = tested on: SK-OV-3 ovarian
K-562 leukemia = tested on: K-562 leukemia
T-47D breast = tested on: T-47D breast
PC-3 prostate = tested on: PC-3 prostate
MALME-3M melanoma = tested on: MALME-3M melanoma
786-0 renal = tested on: 786-0 renal
A498 renal = tested on: A498 renal
OVCAR-4 ovarian = tested on: OVCAR-4 ovarian
OVCAR-3 ovarian = tested on: OVCAR-3 ovarian
HS 578T breast = tested on: HS 578T breast
NCI-H460 lung = tested on: NCI-H460 lung
MDA-MB-435 = tested on: MDA-MB-435
SF-295 CNS = tested on: SF-295 CNS
SK-MEL-28 melanoma = tested on: SK-MEL-28 melanoma
SF-268 CNS = tested on: SF-268 CNS
KM12 colon = tested on: KM12 colon
HCT-116 colon = tested on: HCT-116 colon
BT-549 breast = tested on: BT-549 breast
COLO 205 colon = tested on: COLO 205 colon
UACC-62 melanoma = tested on: UACC-62 melanoma
OVCAR-5 ovarian = tested on: OVCAR-5 ovarian
MDA-N = tested on: MDA-N
LOX IMVI melanoma = tested on: LOX IMVI melanoma
MCF7 breast = tested on: MCF7 breast
NCI/ADR-RES ovarian = tested on: NCI/ADR-RES ovarian
OVCAR-8 ovarian = tested on: OVCAR-8 ovarian
RPMI-8226 leukemia = tested on: RPMI-8226 leukemia
RXF 393 renal = tested on: RXF 393 renal
MOLT-4 leukemia = tested on: MOLT-4 leukemia
CAKI-1 renal = tested on: CAKI-1 renal
DU-145 prostate = tested on: DU-145 prostate
SK-MEL-5 melanoma = tested on: SK-MEL-5 melanoma
HT29 colon = tested on: HT29 colon
CCRF-CEM leukemia = tested on: CCRF-CEM leukemia
EKVX NSCLC = tested on: EKVX NSCLC
M14 melanoma = tested on: M14 melanoma
UO-31 renal = tested on: UO-31 renal
HCT-15 colon = tested on: HCT-15 colon
SNB-19 CNS = tested on: SNB-19 CNS
HCC-2998 colon = tested on: HCC-2998 colon
SW-620 colon = tested on: SW-620 colon
SK-MEL-2 melanoma = tested on: SK-MEL-2 melanoma
SNB-75 CNS = tested on: SNB-75 CNS
UACC-257 melanoma = tested on: UACC-257 melanoma
U251 CNS = tested on: U251 CNS
SN12C renal = tested on: SN12C renal
IGROV1 ovarian = tested on: IGROV1 ovarian
SF-539 CNS = tested on: SF-539 CNS
HL-60(TB) leukemia = tested on: HL-60(TB) leukemia
NCI-H23 lung = tested on: NCI-H23 lung
HOP-92 NSCLC = tested on: HOP-92 NSCLC

Measured: TGI

NNC1=Nc2ccc(Cl)cc2C(=S)N2CSCC12 (stereo not drawn)
not listed: SF-539 CNS | HL-60(TB) leukemia | NCI-H23 lung | HOP-92 NSCLC
> 100 µM: all other assays above

COC(=O)C1C(OS(=O)(=O)O)CCC2CN3CCc4c([nH]c5ccccc45)C3CC21 (stereo not drawn)
not listed: HCC-2998 colon
> 100 µM: all other assays above

Cc1cc(S(=O)(=O)n2cc[nH]c2=O)c(SCCCN(C)C)cc1Cl
not listed: RPMI-8226 leukemia | SNB-75 CNS | HL-60(TB) leukemia | HOP-92 NSCLC
> 100 µM: all other assays above
